In patent US20080234362A1, “Treatment for Asthma and Arthritis and Other Inflammatory Diseases” (BIONOVATE LIMITED, priority 2004, published 2008):
“Also recorded” adds a separate entry of the source. Where two headings read alike, the source gives them in different places.

How the values were obtained:
[1] = system: mast cells; details: cited from earlier work; for IC50: read-out: IC50 (μM) degranulation of mast cells; for ranking of activity in the anti-allergy model: mast cell degranulation
[2] = system: TNFα; details: cited from earlier work
[3] = system: histamine, TNFα and IL-1B induced by IgE; details: mouse and rat model; cited from earlier work
[4] = system: TPA-induced ear oedema; details: cited from earlier work
[5] = system: Recurrent airway obstruction (RAO); assay: double-blind placebo controlled clinical trial on recurrent airway obstruction in horses; type: in vivo; details: horses with RAO
Source text: A Double-Blind Placebo Controlled Clinical Trial comparing the Efficacy of the Green Lipped Mussel Lipid Extract and Flavonoid alone and in Combination on Recurrent Airway Obstruction in Horses.
Recurrent airway obstruction (RAO), an equine asthma, is a chronic inflammatory disease of the airways typified by bronchoconstriction, wheezing and increased mucous production and caused by allergy to fungal and other dusts but mediated, in part, by leukotrienes and other lipid mediators. […] Studies included clinical status, exercise recovery, breath condensate, broncho-alveolar lavage, cytology and mucous scorings.
Eight horses aged 9-21 with RAO symptoms and cytology consistent with the accepted definition of RAO were recruited.
The study was a double blind randomized, placebo controlled trial. […]
Subjects were clinically and endoscopically examined and BAL and condensate collected and frozen in liquid nitrogen every two weeks. […] The BAL cytology was scored by neutrophil count. Mucous was scored by location, type, volume and viscosity. […]
The clinical assessments scores were assessed as a mean clinical RAO score. The clinical assessments were evaluated on a scale of 1-10 where 1 was severe disease symptomology and 10 indicated a disease-free condition score and the results are shown in Table 1 and FIG. 3. […]

[6] = system: antigen-induced bronchoconstriction and airway hyper-reactivity; details: oral, before and after sensitisation; ovalbumin; cited from earlier work
[7] = in vitro; cited from earlier work
[8] = system: LTB4 production; details: 9 g/day; cited from earlier work

Question: With `O=c1c(O)c(-c2ccccc2)oc2ccc(O)cc12` [3,6-dihydroxyflavone] as the molecule, how does the IC50 [1] read?
Answer: The IC50 was 6 µM.

Question: For `O=c1c(O)c(-c2ccccc2)oc2ccccc12` [3-hydroxyflavone], which IC50 [1] is on record?
Answer: Its IC50 is greater than 100 µM.

Question: For `O=c1cc(-c2ccccc2)oc2ccc(O)cc12` [6-hydroxyflavone], which IC50 [1] is on record?
Answer: Its IC50 is 28 µM.

Question: For `O=c1cc(-c2ccccc2)oc2cc(O)ccc12` [7-hydroxyflavone], which IC50 [1] is on record?
Answer: Its IC50 is 21 µM.

Question: With `O=c1cc(-c2ccc(O)cc2)oc2cc(O)cc(O)c12` [Apigenin] as the molecule, how does the “oral in vivo anti-TNFα activity” value [2] read?
Answer: Its value is “potent”.

Question: What about the “ranking of activity in the anti-allergy model” value (“ranking of activity” for short) [1] of the same molecule?
Answer: Its value is “most active”.

Question: What about the IC50 [1] of the same molecule?
Answer: The IC50 was 4.5 µM.

Question: Which results are given for `O=c1cc(-c2ccccc2)oc2cc(O)c(O)c(O)c12` [Baicalein]?
Answer: potency on IgE-induced histamine, TNFα and IL-1B production versus other agents [3]: more potent than many other agents; IC50 [1]: 17 µM

Question: Which IC50 [1] does the source give for `O=c1cc(-c2ccccc2)oc2cc(O)cc(O)c12` [Chrysin] here?
Answer: Its IC50 is greater than 100 µM.

Question: For `COc1ccc(-c2cc(=O)c3c(O)cc(O)cc3o2)cc1O` [Diosmetin], which “ranking of activity” value [1] is on record?
Answer: The value was “most active”.

Question: For `COc1ccc(-c2cc(=O)c3c(O)cc(O[C@@H]4O[C@H](CO[C@@H]5O[C@@H](C)[C@H](O)[C@@H](O)[C@H]5O)[C@@H](O)[C@H](O)[C@H]4O)cc3o2)cc1O` [Diosmin], which IC50 [1] is on record?
Answer: Its IC50 is greater than 100 µM.

Question: Which results are given for `O=c1c(O)c(-c2ccc(O)c(O)c2)oc2cc(O)ccc12` [Fisetin]?
Answer: ranking of activity in the anti-allergy model [1]: most active; IC50 [1]: 3.3 µM

Question: With `O=c1cc(-c2ccccc2)oc2ccccc12` [Flavone] as the molecule, how does the IC50 [1] read?
Answer: Its IC50 is greater than 100 µM.

Question: For `O=c1c(O)c(-c2ccccc2)oc2cc(O)cc(O)c12` [Galangin], which IC50 [1] is on record?
Answer: The IC50 was 40 µM.

Question: For `O=c1c(O)c(-c2ccc(O)cc2)oc2cc(O)cc(O)c12` [Kaempferol], which IC50 [1] is on record?
Answer: The IC50 was 7.5 µM.

Question: Which “oral anti-inflammatory activity, TPA ear oedema” value [4] does the source give for `O=c1cc(-c2ccc(O)c(O)c2)oc2cc(O)cc(O)c12` [Luteolin] here?
Answer: The value was “effective”.

Question: What about the “potency on IgE-induced histamine, TNFα and IL-1B production versus other agents” value [3] of the same molecule?
Answer: The value was “more potent than many other agents”.

Question: What about the “Mean clinical RAO score” value ([5]; 4 capsules per day, 28 days, scale 1-10, 1 severe, 10 disease-free) of the same molecule?
Answer: The value was 3.38^ade.

Question: And the “improvement of respiratory function” value ([5]; versus placebo)?
Answer: The value was “significantly (P<0.001) improved”.

Question: What about the “oral in vivo anti-TNFα activity” value [2] of the same molecule?
Answer: The value was “potent; also recorded: more potent than apigenin; also recorded: inhibited”.

Question: And the “antigen-induced bronchoconstriction and airway hyper-reactivity” value [6]?
Answer: The value was “significantly reduced”.

Question: What about the “ranking of activity” value [1] of the same molecule?
Answer: Its value is “most potent”.

Question: What about the “ranking of activity” value ([1]; listed as luteolin) of the same molecule?
Answer: The value was “most active”.

Question: And the IC50 [1]?
Answer: Its IC50 is 1.8 µM.

Question: For `O=c1c(O)c(-c2ccc(O)cc2O)oc2cc(O)cc(O)c12` [Morin], which IC50 [1] is on record?
Answer: Its IC50 is 51 µM.

Question: What does the source list for `O=c1c(O)c(-c2cc(O)c(O)c(O)c2)oc2cc(O)cc(O)c12` [Myricetin]?
Answer: antioxidant efficiency versus traditional vitamins [7]: more efficient antioxidants than traditional vitamins; IC50 [1]: 6.7 µM

Question: Which “antioxidant efficiency versus traditional vitamins” value [7] does the source give for `O=c1c(O)c(-c2ccc(O)c(O)c2)oc2cc(O)cc(O)c12` [Quercetin] here?
Answer: The value was “more efficient antioxidants than traditional vitamins”.

Question: And the “oral anti-inflammatory activity, TPA ear oedema” value [4]?
Answer: The value was “effective”.

Question: And the “potency on IgE-induced histamine, TNFα and IL-1B production versus other agents” value [3]?
Answer: Its value is “more potent than many other agents”.

Question: And the “ranking of activity” value [1]?
Answer: Its value is “most active”.

Question: And the IC50 [1]?
Answer: Its IC50 is 3 µM.

Question: With `CC/C=C\C/C=C\C/C=C\CCCCCCCC(=O)O` [a-LNA, a-linolenic acid] as the molecule, how does the “LTB4 production and pulmonary function” value [8] read?
Answer: Its value is “inhibit LTB4 production and improve pulmonary function”.
